Test results from patent publication US20260334439A1, “BCAT2 INHIBITORS” (Agios Pharmaceuticals, Inc., priority 2023, published 2026).

Assays:
[1] = biological target: T1, BCAT2 (Homo sapiens, UniProt O15382); experiment: BCAT2 in vitro enzyme inhibition assay (hBCAT2, glutamate dehydrogenase/diaphorase/resazurin coupled fluorescence read); format: biochemical; conditions: hBCAT2, 1 h preincubation at 25° C., one hour reaction; average where tested multiple times
T1 sequence (O15382 28-392): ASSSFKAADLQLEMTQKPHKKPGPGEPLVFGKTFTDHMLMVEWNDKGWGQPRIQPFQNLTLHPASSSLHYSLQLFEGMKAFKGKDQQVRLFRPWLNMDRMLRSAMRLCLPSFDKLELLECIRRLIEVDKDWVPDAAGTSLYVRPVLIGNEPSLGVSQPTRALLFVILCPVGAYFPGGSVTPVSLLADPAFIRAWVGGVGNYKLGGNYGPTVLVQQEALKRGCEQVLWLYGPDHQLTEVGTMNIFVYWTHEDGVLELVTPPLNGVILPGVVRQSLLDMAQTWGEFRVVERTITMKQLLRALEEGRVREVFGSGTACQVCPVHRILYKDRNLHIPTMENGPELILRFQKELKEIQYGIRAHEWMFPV
How it was run: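 hBCAT2 (0.33 μg/mL in mix) preincubated 1 h at 25 °C with compound (top 100 μM, 3-fold, 10 points) in Tris pH 8.0/NaCl/BSA; substrate mix added (L-leucine, α-ketoglutarate, GDH, NAD, diaphorase, resazurin), quenched with SDS after 1 h, fluorescence Ex 540/Em 590; duplicates, repeat tests averaged.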

[2] = biological target: T1, BCAT2; experiment: BCAT2 cell inhibition using engineered A549 cells (MUT KO, BCAT1 KO; 13C6-KMV formation by LC-MS/MS); format: cell-based; parameters: expressed endogenous BCAT2; endogenous in cells; host or cells: A549 cells, MUT knockout and BCAT1 knockout
How it was run: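 Medium 13C6-KMV formation is read by LC-MS/MS after PFBHA derivatization with d8-KMV internal standard. Cells are CRISPR MUT/BCAT1 double-knockout A549 expressing endogenous BCAT2, given compound 15 min before labelled isoleucine (800 uM, added 1:1) for 24 h. CTG viability run in parallel; replicates averaged.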

| SMILES | IC50 [1] [nM] | IC50 [2] [nM] | IC50 ([2]; read-out: BCAT2 Cell Inhibition (IC50), engineered A549 cells, 24 hours, 13C6-KMV in media, average where tested multiple times) [nM] |
| --- | --- | --- | --- |
| O=C1c2cc(Cl)ccc2OCN1[C@H]1CCC[C@@H](n2c(-c3ccccc3F)nc3cnc(-c4nc[nH]n4)cc32)[C@@H]1O [Example 213, 6-chloro-3-((1S,2S,3R)-3-(2-(2-fluorophenyl)-6-(1H-1,2,4-triazol-3-yl)-1H-imidazo[4,5-c]pyridin-1-yl)-2-hydroxycyclohexyl)-2,3-dihydro-4H-benzo[e][1,3]oxazin-4-one] | < 100 | < 100 |  |
| O=C(N[C@H]1CCC[C@@H](n2c(-c3ccccc3F)nc3cnc(-c4nc[nH]n4)cc32)C1)c1ccc(F)cn1 [Example 19, 5-fluoro-N-((1S,3R)-3-(2-(2-fluorophenyl)-6-(1H-1,2,4-triazol-3-yl)-1H-imidazo[4,5-c]pyridin-1-yl)cyclohexyl)picolinamide] | < 100 | 100 to 500 |  |
| O=C1c2ccccc2CN1[C@H]1CCC[C@@H](n2c(-c3ccccc3F)nc3cnc(-c4nc[nH]n4)cc32)C1 [Example 174, 2-((1S,3R)-3-(2-(2-fluorophenyl)-6-(1H-1,2,4-triazol-3-yl)-1H-imidazo[4,5-c]pyridin-1-yl)cyclohexyl)isoindolin-1-one] | < 100 | < 100 |  |
| O=C1c2cc(Cl)ccc2NCN1[C@H]1CCC[C@@H](n2c(-c3ccccc3F)nc3cnc(-c4nc[nH]n4)cc32)C1 [Example 206, 6-chloro-3-((1S,3R)-3-(2-(2-fluorophenyl)-6-(1H-1,2,4-triazol-3-yl)-1H-imidazo[4,5-c]pyridin-1-yl)cyclohexyl)-2,3-dihydroquinazolin-4(1H)-one] | < 100 | < 100 |  |
| COc1ccc(Cl)cc1C(=O)N[C@H]1CCC[C@@H](n2c(-c3ccccc3F)nc3cnc(-c4nc[nH]n4)cc32)[C@@H]1O [Example 102, 5-chloro-N-((1S,2R,3R)-3-(2-(2-fluorophenyl)-6-(1H-1,2,4-triazol-3-yl)-1H-imidazo[4,5-c]pyridin-1-yl)-2-hydroxycyclohexyl)-2-methoxybenzamide] | < 100 | < 100 |  |
| CO[C@@H]1C[C@H](N2Cc3ccc(F)cc3C2=O)C[C@H](n2c(-c3ccccc3F)nc3cnc(-c4nc[nH]n4)cc32)C1 [Example 195, 6-fluoro-2-((1R,3S,5S)-3-(2-(2-fluorophenyl)-6-(1H-1,2,4-triazol-3-yl)-1H-imidazo[4,5-c]pyridin-1-yl)-5-methoxycyclohexyl)isoindolin-1-one] | < 100 | < 100 |  |
| O=C(N[C@H]1CCC[C@@H](n2c(-c3ccccc3F)nc3ccc(-c4nc[nH]n4)cc32)[C@@H]1O)c1cc(Cl)ccn1 [Example 218, 4-chloro-N-((1S,2R,3R)-3-(2-(2-fluorophenyl)-6-(1H-1,2,4-triazol-3-yl)-1H-benzo[d]imid-azol-1-yl)-2-hydroxycyclohex-yl)picolinamide] | < 100 | 100 to 500 |  |
| CC(C)Oc1ccc(Cl)cc1C(=O)N[C@H]1CCC[C@@H](n2c(-c3ccccc3C#N)nc3cnc(-c4nc[nH]n4)cc32)C1 [Example 36, 5-chloro-N-((1S,3R)-3-(2-(2-cyanophenyl)-6-(1H-1,2,4-triazol-3-yl)-1H-imidazo[4,5-c]pyridin-1-yl)cyclohexyl)-2-isopropoxybenzamide] | < 100 | < 100 |  |
| O=C(N[C@H]1CCC[C@@H](n2c(-c3ccccc3F)nc3ccc(-c4nc[nH]n4)c(F)c32)C1)c1cc(Cl)ccn1 [Example 230, 4-chloro-N-((1S,3R)-3-(7-fluoro-2-(2-fluorophenyl)-6-(1H-1,2,4-triazol-3-yl)-1H-benzo[d]imidazol-1-yl)cyclohexyl)picolinamide] | < 100 | < 100 |  |
| O=C(N[C@H]1CCC[C@@H](n2c(-c3ccccc3OCCO)nc3cnc(-c4nc[nH]n4)cc32)C1)c1cc(F)ccc1F [Example 85, 2,5-difluoro-N-((1S,3R)-3-(2-(2-(2-hydroxyethoxy)phenyl)-6-(1H-1,2,4-triazol-3-yl)-1H-imidazo[4,5-c]pyridin-1-yl)cyclohexyl)benzamide] | < 100 | 100 to 500 |  |
| O=c1c2cc(F)ccc2ncn1[C@H]1CCC[C@@H](n2c(-c3ccccc3F)nc3cnc(-c4nc[nH]n4)cc32)C1 [Example 209, 6-fluoro-3-((1S,3R)-3-(2-(2-fluorophenyl)-6-(1H-1,2,4-triazol-3-yl)-1H-imidazo[4,5-c]pyridin-1-yl)cyclohexyl)quinazolin-4(3H)-one] | < 100 | < 100 |  |
| O=C(N[C@H]1CCC[C@@H](n2c(-c3ccccc3F)nc3cnc(-c4nc[nH]n4)cc32)C1)c1cc(Cl)ccc1OC1CC1 [Example 29, 5-chloro-2-cyclopropoxy-N-((1S,3R)-3-(2-(2-fluorophenyl)-6-(1H-1,2,4-triazol-3-yl)-1H-imidazo[4,5-c]pyridin-1-yl)cyclohexyl)benzamide] | < 100 | < 100 |  |
| COCCOc1ccc(Cl)cc1C(=O)N[C@H]1CCC[C@@H](n2c(-c3ccccc3F)nc3cnc(-n4nccn4)cc32)C1 [Example 72, 5-chloro-N-((1S,3R)-3-(2-(2-fluorophenyl)-6-(2H-1,2,3-triazol-2-yl)-1H-imidazo[4,5-c]pyridin-1-yl)cyclohexyl)-2-(2-methoxyethoxy)benzamide] | < 100 | < 100 |  |
| CCOc1ccc(Cl)cc1C(=O)N[C@H]1CCC[C@@H](n2c(-c3ncccc3F)nc3cnc(-c4nc[nH]n4)cc32)C1 [Example 27, 5-chloro-2-ethoxy-N-((1S,3R)-3-(2-(3-fluoropyridin-2-yl)-6-(1H-1,2,4-triazol-3-yl)-1H-imidazo[4,5-c]pyridin-1-yl)cyclohexyl)benzamide] | < 100 | < 100 |  |
| O=C1c2cc(F)ccc2CN1[C@H]1CCC[C@@H](n2c(-c3ccccc3OC(F)F)nc3cnc(-c4nc[nH]n4)cc32)[C@@H]1O [compound 188] | < 100 | 100 to 500 |  |
| O=C1c2c(F)cccc2CN1[C@H]1CCC[C@@H](n2c(-c3ccccc3F)nc3cnc(-c4nc[nH]n4)cc32)C1 [Example 175, 7-fluoro-2-((1S,3R)-3-(2-(2-fluorophenyl)-6-(1H-1,2,4-triazol-3-yl)-1H-imidazo[4,5-c]pyridin-1-yl)cyclohexyl)isoindolin-1-one] | < 100 | < 100 |  |
| O=C1c2cc(Cl)ccc2OCN1[C@H]1CCC[C@@H](n2c(-c3ccccc3OC(F)F)nc3cnc(-c4nc[nH]n4)cc32)C1 [compound 205] | < 100 | < 100 |  |
| O=C(N[C@H]1CCC[C@@H](n2c(-c3ccccc3F)nc3cnc(-c4nc[nH]n4)cc32)C1)c1cc(Cl)cc2ccoc12 [Example 31, 5-chloro-N-((1S,3R)-3-(2-(2-fluorophenyl)-6-(1H-1,2,4-triazol-3-yl)-1H-imidazo[4,5-c]pyridin-1-yl)cyclohexyl)benzofuran-7-carboxamide] | < 100 | < 100 |  |
| CN(C)CCOc1ccc(Cl)cc1C(=O)N[C@H]1CCC[C@@H](n2c(-c3ccccc3F)nc3cnc(-c4nc[nH]n4)cc32)C1 [Example 55, 5-chloro-2-(2-(dimethylamino)ethoxy)-N-((1S,3R)-3-(2-(2-fluorophenyl)-6-(1H-1,2,4-triazol-3-yl)-1H-imidazo[4,5-c]pyridin-1-yl)cyclohexyl)benzamide] | < 100 |  | > 1000 |
| CN1CC(NC(=O)c2cc(Cl)ccc2O)C[C@H](n2c(-c3ccccc3F)nc3cnc(-c4nc[nH]n4)cc32)C1 (stereo in doubt) [Example 143, 5-chloro-N-(5-(2-(2-fluorophenyl)-6-(1H-1,2,4-triazol-3-yl)-1H-imidazo[4,5-c]pyridin-1-yl)-1-methylpiperidin-3-yl)-2-hydroxybenzamide] | < 100 | < 100 |  |
| N#Cc1ccccc1-c1nc2cnc(-c3nc[nH]n3)cc2n1[C@@H]1CCC[C@H](NC(=O)c2cc(Cl)ccn2)C1 [Example 45, 4-chloro-N-((1S,3R)-3-(2-(2-cyanophenyl)-6-(1H-1,2,4-triazol-3-yl)-1H-imidazo[4,5-c]pyridin-1-yl)cyclohexyl)picolinamide] | < 100 | < 100 |  |
| COCCOc1ccc(F)cc1C(=O)N[C@H]1CCC[C@@H](n2c(-c3ccccc3F)nc3cnc(-c4nc[nH]n4)cc32)C1 [Example 59, 5-fluoro-N-((1S,3R)-3-(2-(2-fluorophenyl)-6-(1H-1,2,4-triazol-3-yl)-1H-imidazo[4,5-c]pyridin-1-yl)cyclohexyl)-2-(2-methoxyethoxy)benzamide] | < 100 | < 100 |  |
| COc1ccc(C#N)cc1C(=O)N[C@H]1CCC[C@@H](n2c(-c3ccccc3F)nc3cnc(-c4nc[nH]n4)cc32)C1 [Example 33, 5-cyano-N-((1S,3R)-3-(2-(2-fluorophenyl)-6-(1H-1,2,4-triazol-3-yl)-1H-imidazo[4,5-c]pyridin-1-yl)cyclohexyl)-2-methoxybenzamide] | < 100 | 500 to 1000 |  |
